Test results from PubChem BioAssay (NCI).
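These data come from cells grown in 96-well plates and exposed to compound for 48 hours at five concentrations. At the TGI there is no net growth.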

Legend:
Assay in all cases: NCI anticancer screen, dose series, 48 h
SNB-75 CNS = test system: SNB-75 CNS
MOLT-4 leukemia = test system: MOLT-4 leukemia
SN12C renal = test system: SN12C renal
MCF7 breast = test system: MCF7 breast
UO-31 renal = test system: UO-31 renal
NCI-H522 lung = test system: NCI-H522 lung
PC-3 prostate = test system: PC-3 prostate
HS 578T breast = test system: HS 578T breast
NCI-H226 lung = test system: NCI-H226 lung
CCRF-CEM leukemia = test system: CCRF-CEM leukemia
SK-OV-3 ovarian = test system: SK-OV-3 ovarian
COLO 205 colon = test system: COLO 205 colon
TK-10 renal = test system: TK-10 renal
K-562 leukemia = test system: K-562 leukemia

SMILES | TGI (SNB-75 CNS) [µM] | TGI (MOLT-4 leukemia) [µM] | TGI (SN12C renal) [µM] | TGI (MCF7 breast) [µM] | TGI (UO-31 renal) [µM] | TGI (NCI-H522 lung) [µM] | TGI (PC-3 prostate) [µM] | TGI (HS 578T breast) [µM] | TGI (NCI-H226 lung) [µM] | TGI (CCRF-CEM leukemia) [µM] | TGI (SK-OV-3 ovarian) [µM] | TGI (COLO 205 colon) [µM] | TGI (TK-10 renal) [µM] | TGI (K-562 leukemia) [µM]
CC(=O)NC1C(OCc2ccccc2)OC(CO)C(O)C1OCC(=O)N1CCCC1C(=O)NC(CCC(=O)NCCCCCNc1c2ccccc2nc2cccc([N+](=O)[O-])c12)C(N)=O (configuration not stated) | 0.479 | 4.55 | 0.0753 | 0.502 | 0.115 | 0.25 | 0.0293 | 0.19 | 0.514 | 1.08 | 0.538 | 0.039 | 0.762 | 0.0475
CCOC(=O)NC(=S)NC(C)c1ccccc1 (configuration not stated) | > 100 | > 100 | – | > 100 | > 100 | > 100 | > 100 | > 100 | > 100 | > 100 | > 100 | > 100 | > 100 | > 100
CC(=O)C1C(=O)C(=O)N(c2ccc(Br)cc2)C1=O (configuration not stated) | > 100 | > 100 | > 100 | > 100 | > 100 | > 100 | > 100 | > 100 | > 100 | > 100 | > 100 | > 100 | > 100 | –
C#CC(O)Cc1ccc(OC)c2occc12 (configuration not stated) | > 100 | – | > 100 | > 100 | > 100 | > 100 | > 100 | > 100 | > 100 | – | > 100 | > 100 | > 100 | > 100
Cc1ccc(-n2cc(-c3ccc(Cl)cc3)c3c2N=CN2NC(c4cccs4)=NC32)cc1 (configuration not stated) | 23.4 | – | 29 | > 100 | 27.7 | > 100 | > 100 | 6.52 | 80.7 | 42.4 | 37.3 | 28.7 | 27.9 | > 100
CCN1C(=O)CS/C1=N\NC(=O)CSc1nc2ccccc2c(=O)n1CC | > 100 | > 100 | > 100 | > 100 | > 100 | > 100 | > 100 | > 100 | > 100 | > 100 | > 100 | > 100 | > 100 | > 100
NCCC1([N+](=O)[O-])CCNCC1 | > 100 | > 100 | > 100 | > 100 | > 100 | > 100 | > 100 | > 100 | > 100 | > 100 | > 100 | > 100 | > 100 | > 100
Cc1nc(Nc2nc3ccccc3[nH]2)[nH]c(=O)c1CCO | > 100 | > 100 | > 100 | > 100 | > 100 | > 100 | > 100 | > 100 | > 96 | > 100 | > 82.1 | > 100 | > 81.4 | > 100
